Measured values reported in paper PMC6353796, “Thermostable Branched-Chain Amino Acid Transaminases From the Archaea Geoglobus acetivorans and Archaeoglobus fulgidus: Biochemical and Structural Characterization” (Frontiers in Bioengineering and Biotechnology, 2019).

Assays:
Assay type in all cases: binding
AF0933 [1] = molecular target: T1, AF0933 (Archaeoglobus fulgidus, UniProt O29329); test: X-ray crystal structure, […] Å, co-crystallization; settings: 5 mM gabaculine; covalent adduct with PLP, irreversible; partial occupancy, absent in subunit F
T1 construct: gene ilvE; His-tagged (pLATE51, E. coli Rosetta (DE3)-pLysS); homohexamer in solution; catalytic Lys150
T1 sequence (O29329 1-290): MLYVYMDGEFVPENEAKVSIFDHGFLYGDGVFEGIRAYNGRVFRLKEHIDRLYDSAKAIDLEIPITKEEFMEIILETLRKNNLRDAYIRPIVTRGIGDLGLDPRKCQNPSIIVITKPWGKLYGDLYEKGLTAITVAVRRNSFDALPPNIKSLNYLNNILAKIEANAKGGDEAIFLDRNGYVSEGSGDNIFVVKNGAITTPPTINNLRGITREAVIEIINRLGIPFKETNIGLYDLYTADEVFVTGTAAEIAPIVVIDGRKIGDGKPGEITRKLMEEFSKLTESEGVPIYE

GEO1900 [2] = molecular target: T2, GEO1900 (Geoglobus acetivorans, UniProt A0A0A7GJ30); test: X-ray crystal structure, […] Å; settings: covalent internal aldimine with Lys152
T2 construct: gene ilvE; mainly homodimer in solution, hexamer in crystal; catalytic Lys152

AF0933 [3] = molecular target: T1, AF0933; test: X-ray crystal structure, […] Å; settings: covalent internal aldimine with Lys150
GEO1900 [4] = molecular target: T2, GEO1900; test: X-ray crystal structure, […] Å, soak; settings: 50 mM AKG soak; unproductive complex with holoenzyme; active site of subunit A only

T2 sequence (A0A0A7GJ30 entry or part of it): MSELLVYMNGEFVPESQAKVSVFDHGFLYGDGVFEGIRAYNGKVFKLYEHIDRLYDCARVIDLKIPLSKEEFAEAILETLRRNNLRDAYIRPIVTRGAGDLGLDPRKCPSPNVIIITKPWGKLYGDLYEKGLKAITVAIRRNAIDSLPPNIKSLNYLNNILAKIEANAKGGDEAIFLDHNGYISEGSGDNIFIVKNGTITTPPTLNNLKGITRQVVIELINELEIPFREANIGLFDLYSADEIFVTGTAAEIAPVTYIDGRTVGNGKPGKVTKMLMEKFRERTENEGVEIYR

N[C@@H]1C=CC=C(C(=O)O)C1 [gabaculine]
X-ray crystal structure, 2.0 Å, co-crystallization (AF0933 [1]): AF0933 complexed with gabaculine 5MR0

Cc1ncc(COP(=O)(O)O)c(C=O)c1O [pyridoxal 5′-phosphate]
X-ray crystal structure, 1.9 Å (GEO1900 [2]): A PLP molecule is covalently bound to the catalytic Lys152 in the GEO1900 active site
X-ray crystal structure, 2.1 Å (AF0933 [3]): A PLP molecule is covalently bound to the catalytic Lys152 in the GEO1900 active site (Lys150

O=C(O)CCC(=O)C(=O)O [α-ketoglutarate]
X-ray crystal structure, 2.2 Å, soak (GEO1900 [4]): GEO1900 complexed with AKG 5E25
